Results reported in PubChem BioAssay (NCI).
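GI50 marks 50% less growth. TGI denotes the concentration required for complete inhibition of growth.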

Tests used:
Test in all cases: NCI tumour cell line growth inhibition, 384-well format
[1] = test system: A498 renal
[2] = test system: A549 NSCLC
[3] = test system: ACHN renal
[4] = test system: BT-549 breast
[5] = test system: CAKI-1 renal
[6] = test system: COLO 205 colon
[7] = test system: DU-145 prostate
[8] = test system: EKVX NSCLC
[9] = test system: HCC-2998 colon
[10] = test system: HCT-116 colon
[11] = test system: HCT-15 colon
[12] = test system: HL-60(TB) leukemia
[13] = test system: HOP-62 NSCLC
[14] = test system: HOP-92 NSCLC
[15] = test system: HS 578T breast
[16] = test system: HT29 colon
[17] = test system: IGROV1 ovarian
[18] = test system: KM12 colon
[19] = test system: LOX IMVI melanoma
[20] = test system: MCF7 breast
[21] = test system: MDA-MB-231 breast
[22] = test system: MDA-MB-435 melanoma
[23] = test system: MDA-MB-468 breast
[24] = test system: MOLT-4 leukemia
[25] = test system: NCI-H226 lung
[26] = test system: NCI-H322M lung
[27] = test system: NCI-H460 NSCLC
[28] = test system: NCI-H522 lung
[29] = test system: NCI/ADR-RES ovarian
[30] = test system: OVCAR-3 ovarian
[31] = test system: OVCAR-4 ovarian
[32] = test system: OVCAR-5 ovarian
[33] = test system: OVCAR-8 ovarian
[34] = test system: PC-3 prostate
[35] = test system: RPMI-8226 leukemia
[36] = test system: SF-268 CNS
[37] = test system: SF-295 CNS
[38] = test system: SF-539 CNS
[39] = test system: SK-MEL-28 melanoma
[40] = test system: SK-MEL-5 melanoma
[41] = test system: SK-OV-3 ovarian
[42] = test system: SN12C renal
[43] = test system: SNB-19 CNS
[44] = test system: SNB-75 CNS
[45] = test system: SR leukemia
[46] = test system: T-47D breast
[47] = test system: TK-10 renal
[48] = test system: U251 glioblastoma
[49] = test system: UACC-257 melanoma
[50] = test system: 786-0 renal
[51] = test system: CCRF-CEM leukemia
[52] = test system: K-562 leukemia
[53] = test system: M14 melanoma
[54] = test system: MALME-3M melanoma
[55] = test system: NCI-H23 lung
[56] = test system: RXF 393 renal
[57] = test system: SW-620 colon
[58] = test system: UACC-62 melanoma
[59] = test system: UO-31 renal

## FC(F)c1nc2ccccc2n1-c1nc(N2CCOCC2)nc(N2CCOCC2)n1
[1]
  GI50: 101 nM
  TGI: 351 nM
[2]
  GI50: 645 nM
  TGI: > 100000 nM
[3]
  GI50: 187 nM
  TGI: 1410 nM
[4]
  GI50: 207 nM
  TGI: 1790 nM
[5]
  GI50: 216 nM
  TGI: > 100000 nM
[6]
  GI50: 246 nM
  TGI: 1980 nM
[7]
  GI50: 352 nM
  TGI: 2390 nM
[8]
  GI50: 169 nM
  TGI: 1550 nM
[9]
  GI50: 23.1 nM
  TGI: 2120 nM
[10]
  GI50: 1350 nM
  TGI: > 100000 nM
[11]
  GI50: 330 nM
  TGI: > 100000 nM
[12]
  GI50: 138 nM
  TGI: 896 nM
[13]
  GI50: 420 nM
  TGI: 3960 nM
[14]
  GI50: 303 nM
  TGI: > 100000 nM
[15]
  GI50: 202 nM
  TGI: 2140 nM
[16]
  GI50: 454 nM
  TGI: > 100000 nM
[17]
  GI50: 44 nM
  TGI: 237 nM
[18]
  GI50: 1400 nM
  TGI: > 100000 nM
[19]
  GI50: 598 nM
  TGI: 4150 nM
[20]
  GI50: 84.3 nM
  TGI: > 100000 nM
[21]
  GI50: 957 nM
  TGI: > 100000 nM
[22]
  GI50: 918 nM
  TGI: 4750 nM
[23]
  GI50: 202 nM
  TGI: 2090 nM
[24]
  GI50: 166 nM
  TGI: 716 nM
[25]
  GI50: 324 nM
  TGI: 3020 nM
[26]
  GI50: 281 nM
  TGI: 1980 nM
[27]
  GI50: 224 nM
  TGI: 2140 nM
[28]
  GI50: 198 nM
  TGI: 894 nM
[29]
  GI50: 507 nM
  TGI: > 100000 nM
[30]
  GI50: 174 nM
  TGI: 1080 nM
[31]
  GI50: 25.2 nM
  TGI: 1530 nM
[32]
  GI50: 133 nM
  TGI: 759 nM
[33]
  GI50: 641 nM
  TGI: > 100000 nM
[34]
  GI50: 56 nM
  TGI: 825 nM
[35]
  GI50: 172 nM
  TGI: 608 nM
[36]
  GI50: 1540 nM
  TGI: > 100000 nM
[37]
  GI50: 250 nM
  TGI: 2370 nM
[38]
  GI50: 475 nM
  TGI: > 100000 nM
[39]
  GI50: 402 nM
  TGI: > 100000 nM
[40]
  GI50: 191 nM
  TGI: 1290 nM
[41]
  GI50: 282 nM
  TGI: 5000 nM
[42]
  GI50: 19.8 nM
  TGI: 380 nM
[43]
  GI50: 3370 nM
  TGI: > 100000 nM
[44]
  GI50: 154 nM
  TGI: 13900 nM
[45]
  GI50: 147 nM
  TGI: 896 nM
[46]
  GI50: 171 nM
  TGI: 5380 nM
[47]
  GI50: 224 nM
  TGI: 1740 nM
[48]
  GI50: 1230 nM
  TGI: > 100000 nM
[49]
  GI50: 278 nM
  TGI: 4260 nM

## Cc1cnc(NC(=O)Nc2cc(Br)c(C)cc2OC[C@@H]2CNCCO2)cn1
[50]
  GI50: 101 nM
  TGI: 427 nM
[1]
  GI50: 25.5 nM
  TGI: 81.8 nM
[2]
  GI50: 706 nM
  TGI: 14300 nM
[3]
  GI50: 58.5 nM
  TGI: 254 nM
[4]
  GI50: 84.9 nM
  TGI: 258 nM
[5]
  GI50: 469 nM
  TGI: 2860 nM
[51]
  GI50: 100 nM
  TGI: 219 nM
[6]
  GI50: 1690 nM
  TGI: 4720 nM
[7]
  GI50: 347 nM
  TGI: 1490 nM
[8]
  GI50: 436 nM
  TGI: 11400 nM
[9]
  GI50: 41.4 nM
  TGI: 180 nM
[10]
  GI50: 977 nM
  TGI: 2300 nM
[11]
  GI50: 303 nM
  TGI: 1130 nM
[12]
  GI50: 47.8 nM
  TGI: 174 nM
[13]
  GI50: 143 nM
  TGI: 512 nM
[14]
  GI50: 106 nM
  TGI: 851 nM
[15]
  GI50: 52.8 nM
  TGI: 245 nM
[16]
  GI50: 326 nM
  TGI: 1120 nM
[17]
  GI50: 354 nM
  TGI: 12200 nM
[52]
  GI50: 157 nM
  TGI: 323 nM
[18]
  GI50: 72.3 nM
  TGI: 510 nM
[19]
  GI50: 1140 nM
  TGI: 2390 nM
[53]
  GI50: 27.1 nM
  TGI: 83.3 nM
[54]
  GI50: 135 nM
  TGI: 1340 nM
[20]
  GI50: 56.3 nM
  TGI: 1680 nM
[21]
  GI50: 608 nM
  TGI: 6180 nM
[22]
  GI50: 194 nM
  TGI: 389 nM
[23]
  GI50: 485 nM
  TGI: 2660 nM
[24]
  GI50: 131 nM
  TGI: 262 nM
[25]
  GI50: 5040 nM
  TGI: 18100 nM
[55]
  GI50: 56 nM
  TGI: 244 nM
[26]
  GI50: 195 nM
  TGI: 1830 nM
[27]
  GI50: 290 nM
  TGI: 1430 nM
[28]
  GI50: 1940 nM
  TGI: 5840 nM
[29]
  GI50: 254 nM
  TGI: 701 nM
[30]
  GI50: 188 nM
  TGI: 781 nM
[31]
  GI50: 163 nM
  TGI: 1390 nM
[33]
  GI50: 153 nM
  TGI: 443 nM
[34]
  GI50: 1240 nM
  TGI: 14200 nM
[35]
  GI50: 146 nM
  TGI: 317 nM
[56]
  GI50: 36.3 nM
  TGI: 165 nM
[36]
  GI50: 368 nM
  TGI: 2940 nM
[37]
  GI50: 42.2 nM
  TGI: 210 nM
[38]
  GI50: 54.3 nM
  TGI: 201 nM
[39]
  GI50: 1050 nM
  TGI: 2230 nM
[40]
  GI50: 329 nM
  TGI: 1350 nM
[41]
  GI50: 157 nM
  TGI: 412 nM
[42]
  GI50: 1800 nM
  TGI: 6090 nM
[43]
  GI50: 482 nM
  TGI: 4850 nM
[44]
  GI50: 369 nM
  TGI: 2950 nM
[57]
  GI50: 693 nM
  TGI: 2050 nM
[46]
  GI50: 1860 nM
  TGI: 3630 nM
[47]
  GI50: 106 nM
  TGI: 366 nM
[48]
  GI50: 497 nM
  TGI: 1730 nM
[49]
  GI50: 1420 nM
  TGI: 2730 nM
[58]
  GI50: 284 nM
  TGI: 1640 nM
[59]
  GI50: 264 nM
  TGI: 1850 nM
